Results from patent publication US20210403485A1, “PYRAZOLOPYRIMIDINE DERIVATIVE AS SELECTIVE TRK INHIBITOR” (SHANDONG LUYE PHARMACEUTICAL CO., LTD., priority 2018, published 2021).
Like-named read-outs stand apart in the source and are kept apart here.

What was measured:
[1] = Animal body weight and general observations, Ba/F3 ETV6-NTRK3-G623R tumor-bearing nude mice
Description: (§1) The mice in groups were intragastrically administrated on the next day, and the animal body weight and the long and short diameters of the tumor were measured once every other day.

Ba/F3 SLC34A2-ROS1-WT = molecular target: T1, Ba/F3 SLC34A2-ROS1-WT (Homo sapiens, UniProt P08922); assay: Inhibitory activity against cell proliferation (CellTiter-Glo, 72 hours); assay type: cell-based; settings: read-out: Half maximal inhibitory concentration IC50 of cells, Ba/F3 SLC34A2-ROS1-WT
T1 construct: fused on or other part: N-terminal part of SLC34A2 as fusion partner (part of the key); O95436 (Sodium-dependent phosphate transport protein 2B)
T1 sequence (P08922 whole entry, stated change not applied, the tested form may be a part): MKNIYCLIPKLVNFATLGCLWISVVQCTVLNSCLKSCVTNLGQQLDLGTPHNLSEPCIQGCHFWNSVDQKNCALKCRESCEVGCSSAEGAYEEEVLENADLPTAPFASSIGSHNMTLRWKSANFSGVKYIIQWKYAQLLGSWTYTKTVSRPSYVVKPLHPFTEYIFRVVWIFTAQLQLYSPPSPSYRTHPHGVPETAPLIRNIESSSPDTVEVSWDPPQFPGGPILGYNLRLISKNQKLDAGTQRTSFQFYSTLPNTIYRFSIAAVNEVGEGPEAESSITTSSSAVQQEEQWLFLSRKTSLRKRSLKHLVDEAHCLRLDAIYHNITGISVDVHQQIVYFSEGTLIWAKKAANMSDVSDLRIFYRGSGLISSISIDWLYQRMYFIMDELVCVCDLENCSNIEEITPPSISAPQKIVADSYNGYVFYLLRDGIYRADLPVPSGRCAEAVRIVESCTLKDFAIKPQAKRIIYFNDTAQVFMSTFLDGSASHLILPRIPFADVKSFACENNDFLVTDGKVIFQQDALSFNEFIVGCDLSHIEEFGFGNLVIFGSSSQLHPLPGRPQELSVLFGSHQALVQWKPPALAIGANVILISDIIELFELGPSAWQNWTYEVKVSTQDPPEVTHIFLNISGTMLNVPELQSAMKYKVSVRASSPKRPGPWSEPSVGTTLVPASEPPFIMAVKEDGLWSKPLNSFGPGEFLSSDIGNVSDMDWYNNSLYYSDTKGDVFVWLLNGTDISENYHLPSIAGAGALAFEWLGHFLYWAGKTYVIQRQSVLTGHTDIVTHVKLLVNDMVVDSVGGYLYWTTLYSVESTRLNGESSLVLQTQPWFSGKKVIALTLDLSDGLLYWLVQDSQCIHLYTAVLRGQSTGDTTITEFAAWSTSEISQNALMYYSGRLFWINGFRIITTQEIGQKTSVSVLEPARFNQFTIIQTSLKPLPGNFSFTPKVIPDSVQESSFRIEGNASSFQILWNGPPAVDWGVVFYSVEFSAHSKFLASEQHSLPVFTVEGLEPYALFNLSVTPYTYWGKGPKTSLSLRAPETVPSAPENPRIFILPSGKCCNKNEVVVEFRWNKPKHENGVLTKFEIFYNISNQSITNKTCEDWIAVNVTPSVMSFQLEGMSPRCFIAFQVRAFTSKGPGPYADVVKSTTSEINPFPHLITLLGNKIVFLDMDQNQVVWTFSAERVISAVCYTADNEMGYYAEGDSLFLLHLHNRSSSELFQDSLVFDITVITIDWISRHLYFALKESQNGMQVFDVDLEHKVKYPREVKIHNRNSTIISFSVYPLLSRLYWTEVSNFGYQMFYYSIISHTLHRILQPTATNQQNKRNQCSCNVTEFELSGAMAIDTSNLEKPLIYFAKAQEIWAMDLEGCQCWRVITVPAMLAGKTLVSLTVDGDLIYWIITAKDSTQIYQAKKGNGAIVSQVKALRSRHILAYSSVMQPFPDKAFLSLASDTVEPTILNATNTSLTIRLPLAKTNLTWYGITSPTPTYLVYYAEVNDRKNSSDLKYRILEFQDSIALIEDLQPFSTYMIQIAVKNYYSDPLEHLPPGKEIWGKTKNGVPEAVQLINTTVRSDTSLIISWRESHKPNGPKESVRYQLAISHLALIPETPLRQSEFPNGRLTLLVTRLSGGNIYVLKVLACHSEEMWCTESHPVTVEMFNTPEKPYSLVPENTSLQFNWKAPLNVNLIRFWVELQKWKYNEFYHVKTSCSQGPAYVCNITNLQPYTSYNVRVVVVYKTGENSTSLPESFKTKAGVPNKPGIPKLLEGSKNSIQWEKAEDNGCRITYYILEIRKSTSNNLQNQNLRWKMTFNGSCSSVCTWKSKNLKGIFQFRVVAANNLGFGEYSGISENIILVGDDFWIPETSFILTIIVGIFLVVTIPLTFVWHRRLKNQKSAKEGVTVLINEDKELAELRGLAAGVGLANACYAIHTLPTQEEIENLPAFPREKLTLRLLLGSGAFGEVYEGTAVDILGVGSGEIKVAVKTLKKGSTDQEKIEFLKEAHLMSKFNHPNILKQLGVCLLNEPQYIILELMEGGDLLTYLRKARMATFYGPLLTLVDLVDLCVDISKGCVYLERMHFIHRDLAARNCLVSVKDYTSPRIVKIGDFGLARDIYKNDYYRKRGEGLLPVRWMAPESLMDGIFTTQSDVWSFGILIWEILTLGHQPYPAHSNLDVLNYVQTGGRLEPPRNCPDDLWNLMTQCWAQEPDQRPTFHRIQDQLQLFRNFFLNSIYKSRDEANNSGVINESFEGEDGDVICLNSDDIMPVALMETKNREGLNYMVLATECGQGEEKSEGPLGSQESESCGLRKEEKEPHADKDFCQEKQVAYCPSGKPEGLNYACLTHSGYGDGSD
Description: Adenosine Triphosphate (ATP) is an energy carrier commonly used in various life activities in nature, and is the minimum unit for energy storage and transfer. The CellTiter-Glo™ cell viability assay kit uses luciferase as an assay agent, which requires the involvement of ATP in luminescence. The CellTiter-Glo™ reagent is added into cell culture medium to measure the luminescence value. The luminescence signal is directly proportional to the amount of ATP in the system, and the ATP is positively correlated with the number of viable cells. Therefore, the proliferation of cells can be detected by detecting the ATP content using the CellTiter-Glo kit.
a) Cells in the logarithmic growth phase were collected and counted using a […]. The cell viability was detected by the trypan blue exclusion method, and the cell viability was kept over 90%.
b) The cell concentration was adjusted; 90 μL of the cell suspension was added to a 96-well plate.
a) A 10-fold compound solution was prepared, with the highest concentration being 10 μM (a total of 9 concentrations, 3-fold dilution). 10 μL of compound solution was added to each well of a 96-well plate inoculated with cells, and three duplicate wells were set for each compound concentration.
a) The CTG reagent was thawed and the cell plate was equilibrated to room temperature for 30 minutes.
b) An equal volume of CTG solution was added to each well.
c) The plate was shaken on an orbital shaker for 5 minutes to lyse the cells.
d) The cell plate was placed at room temperature for 20 minutes to stabilize the luminescence signal.
e) The luminescence value was read.
The data were analyzed using GraphPad Prism 5.0 software, fitted with nonlinear S-curve regression to give dose-response curves, and IC50 values were calculated therefrom.

[2] = Pharmacokinetic test of compounds in mice (plasma, LC/MS/MS); assay type: in vivo, male CD-1 mice; settings: for AUC(0-t): read-out: Area under the curve AUC0-last
Description: Experimental purpose: male CD-1 mice aged 7-9 weeks were selected as test animals, and the drug concentrations of the compounds in plasma at different time points after single intravenous injection (IV) and intragastric administration (PO) of the compounds were measured by an LC/MS/MS method, so that the pharmacokinetic behavior of the compounds disclosed herein in mice was studied, and the pharmacokinetic characteristic of the compounds was evaluated.
Drug preparation: the compounds were all prepared into clear solution by taking 5% DMSO+10% solutol+85% water as vehicle, and were used for administration in IV and PO groups. The dose of each compound administered was: IV, 3 mg/kg; PO, 10 mg/kg.

[3] = Animal body weight and general observations, Ba/F3 ETV6-NTRK3 tumor-bearing nude mice
Description: as §1

ALK = molecular target: T2, ALK (Homo sapiens, UniProt Q9UM73); assay: Kinase inhibitory activity (33P-ATP, filtration-binding method, Reaction Biology Corp.); assay type: biochemical
T2 construct: purchased Reaction Biology Corp
T2 sequence (Q9UM73 19-1620): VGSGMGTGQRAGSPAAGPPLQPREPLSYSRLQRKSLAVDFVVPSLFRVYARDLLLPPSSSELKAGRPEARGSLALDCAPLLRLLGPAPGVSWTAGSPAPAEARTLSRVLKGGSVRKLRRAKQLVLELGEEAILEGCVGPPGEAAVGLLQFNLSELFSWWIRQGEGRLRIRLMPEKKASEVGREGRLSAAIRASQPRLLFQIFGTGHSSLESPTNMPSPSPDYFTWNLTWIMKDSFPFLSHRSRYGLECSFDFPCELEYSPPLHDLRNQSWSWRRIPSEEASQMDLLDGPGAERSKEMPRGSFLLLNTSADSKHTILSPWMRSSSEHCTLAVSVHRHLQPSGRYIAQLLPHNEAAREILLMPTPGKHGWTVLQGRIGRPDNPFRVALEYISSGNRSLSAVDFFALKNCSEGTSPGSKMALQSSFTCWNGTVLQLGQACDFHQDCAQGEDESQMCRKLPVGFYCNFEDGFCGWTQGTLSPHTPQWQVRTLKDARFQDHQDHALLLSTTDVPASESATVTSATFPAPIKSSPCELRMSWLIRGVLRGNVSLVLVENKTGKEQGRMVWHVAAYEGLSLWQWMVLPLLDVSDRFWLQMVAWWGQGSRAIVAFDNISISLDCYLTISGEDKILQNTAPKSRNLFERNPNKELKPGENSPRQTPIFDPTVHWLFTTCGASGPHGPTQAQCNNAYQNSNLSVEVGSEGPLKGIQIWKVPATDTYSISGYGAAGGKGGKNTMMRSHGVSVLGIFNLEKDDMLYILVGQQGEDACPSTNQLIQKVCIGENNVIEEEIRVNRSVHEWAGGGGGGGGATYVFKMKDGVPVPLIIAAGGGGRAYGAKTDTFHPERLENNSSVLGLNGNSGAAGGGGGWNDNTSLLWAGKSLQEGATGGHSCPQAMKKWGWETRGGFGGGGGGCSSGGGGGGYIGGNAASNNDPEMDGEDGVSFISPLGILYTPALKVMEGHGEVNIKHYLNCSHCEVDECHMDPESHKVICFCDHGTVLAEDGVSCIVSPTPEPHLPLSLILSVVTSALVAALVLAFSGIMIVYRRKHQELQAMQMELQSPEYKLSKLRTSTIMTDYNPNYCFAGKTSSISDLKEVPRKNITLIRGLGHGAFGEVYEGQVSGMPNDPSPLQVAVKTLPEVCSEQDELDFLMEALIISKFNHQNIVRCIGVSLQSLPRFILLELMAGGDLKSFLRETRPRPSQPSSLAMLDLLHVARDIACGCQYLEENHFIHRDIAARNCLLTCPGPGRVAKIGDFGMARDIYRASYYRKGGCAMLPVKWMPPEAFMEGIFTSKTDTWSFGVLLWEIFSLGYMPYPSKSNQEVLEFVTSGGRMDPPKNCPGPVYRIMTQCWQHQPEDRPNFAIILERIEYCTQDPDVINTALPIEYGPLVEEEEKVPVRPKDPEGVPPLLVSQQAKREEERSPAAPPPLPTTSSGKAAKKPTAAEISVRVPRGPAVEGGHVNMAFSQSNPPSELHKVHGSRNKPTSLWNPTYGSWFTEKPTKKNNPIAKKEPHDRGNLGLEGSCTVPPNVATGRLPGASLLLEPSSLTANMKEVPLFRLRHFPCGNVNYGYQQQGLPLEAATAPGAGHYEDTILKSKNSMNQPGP
Description: The mixture was incubated at room temperature for 20 minutes, added with ^33P-ATP at a certain concentration to start the reaction, and then incubated at room temperature for 120 minutes. Finally, the radioactivity of the reactant was detected by the filtration-binding method. The final kinase activity was expressed as the ratio of the remaining kinase activity in the test sample to the kinase activity of the DMSO control. The dose-response curves were fitted and IC50 values were calculated by GraphPad software.

Compound: O=C1NC2(CC2)COc2ncc(F)cc2C2COCCN2c2ccn3ncc1c3n2 (single isomer, unassigned) [WX001B]
- Rate of change in body weight (%) of day 11 to day 0 ([1]; 20 mg/kg bid): 8.8%
- Tolerance (body weight course) ([1]; 2.5-20 mg/kg bid): good tolerance
- Body weight ([1]; Day 0, 2.5 mg/kg bid): 23.6 ± 1.7 g
- Body weight ([1]; Day 0, 5 mg/kg bid): 24.4 ± 1.9 g
- Body weight ([1]; Day 0, 10 mg/kg bid): 23.6 ± 2.2 g
- Body weight ([1]; Day 0, 20 mg/kg bid): 24.1 ± 2.3 g
- Body weight ([1]; Day 3, 2.5 mg/kg bid): 24.6 ± 1.7 g
- Body weight ([1]; Day 3, 5 mg/kg bid): 25.7 ± 1.9 g
- Body weight ([1]; Day 3, 10 mg/kg bid): 24.9 ± 2.1 g
- Body weight ([1]; Day 3, 20 mg/kg bid): 25.9 ± 2.8 g
- Body weight ([1]; Day 5, 2.5 mg/kg bid): 25.5 ± 1.8 g
- Body weight ([1]; Day 5, 5 mg/kg bid): 26.5 ± 1.9 g
- Body weight ([1]; Day 5, 10 mg/kg bid): 26.3 ± 2.2 g
- Body weight ([1]; Day 5, 20 mg/kg bid): 26.9 ± 2.9 g
- Body weight ([1]; Day 7, 2.5 mg/kg bid): 26.1 ± 2.1 g
- Body weight ([1]; Day 7, 5 mg/kg bid): 27.1 ± 1.8 g
- Body weight ([1]; Day 7, 10 mg/kg bid): 26.7 ± 2.2 g
- Body weight ([1]; Day 7, 20 mg/kg bid): 26.6 ± 3.2 g
- Body weight ([1]; Day 9, 2.5 mg/kg bid): 26.5 ± 1.8 g
- Body weight ([1]; Day 9, 5 mg/kg bid): 27.9 ± 1.9 g
- Body weight ([1]; Day 9, 10 mg/kg bid): 26.8 ± 2.2 g
- Body weight ([1]; Day 9, 20 mg/kg bid): 26.4 ± 3.5 g
- Body weight ([1]; Day 11, 2.5 mg/kg bid): 26.8 ± 2.0 g
- Body weight ([1]; Day 11, 5 mg/kg bid): 27.9 ± 2.6 g
- Body weight ([1]; Day 11, 10 mg/kg bid): 27.3 ± 2.2 g
- Body weight ([1]; Day 11, 20 mg/kg bid): 26.3 ± 3.9 g
- GI50 (Ba/F3 SLC34A2-ROS1-WT): 0.0642 µM
- Apparent clearance Cl ([2]; IV, 3 mg/kg): 7.33 mL/min/kg
- Vd ([2]; male, CD-1, mouse, plasma, IV, 3 mg/kg, read-out: Apparent volume of distribution Vd): 0.77 L/kg
- AUC(0-t) ([2]; male, CD-1, mouse, plasma, IV, 3 mg/kg): 16.6 µM·h
- half-life ([2]; male, CD-1, mouse, plasma, IV, 3 mg/kg, read-out: Half-life T1/2 (converted)): 1.58 h
- AUC(0-t) ([2]; male, CD-1, mouse, plasma, PO, 10 mg/kg): 49.1 µM·h
- bioavailability ([2]; male, CD-1, mouse, plasma, PO, 10 mg/kg, read-out: Bioavailability F %): 89%
- Cmax ([2]; male, CD-1, mouse, plasma, PO, 10 mg/kg, read-out: Peak concentration Cmax): 12.2 µM
- Rate of change in body weight (%) of day 11 to day 0 ([3]; 2.5 mg/kg bid): 4.9%
- Rate of change in body weight (%) of day 11 to day 0 ([3]; 5 mg/kg bid): 5.0%
- Rate of change in body weight (%) of day 11 to day 0 ([3]; 10 mg/kg bid): 4.8%
- Rate of change in body weight (%) of day 11 to day 0 ([3]; 20 mg/kg bid): 5.1%
- Body weight ([3]; Day 0, 2.5 mg/kg bid): 22.9 ± 1.6 g
- Body weight ([3]; Day 0, 5 mg/kg bid): 23.5 ± 1.6 g
- Body weight ([3]; Day 0, 10 mg/kg bid): 23.3 ± 0.9 g
- Body weight ([3]; Day 0, 20 mg/kg bid): 23.2 ± 1.9 g
- Body weight ([3]; Day 3, 2.5 mg/kg bid): 24.2 ± 2.0 g
- Body weight ([3]; Day 3, 5 mg/kg bid): 25.5 ± 1.8 g
- Body weight ([3]; Day 3, 10 mg/kg bid): 24.9 ± 0.7 g
- Body weight ([3]; Day 3, 20 mg/kg bid): 25.1 ± 2.5 g
- Body weight ([3]; Day 5, 2.5 mg/kg bid): 24.8 ± 1.8 g
- Body weight ([3]; Day 5, 5 mg/kg bid): 26.4 ± 1.6 g
- Body weight ([3]; Day 5, 10 mg/kg bid): 25.8 ± 0.7 g
- Body weight ([3]; Day 5, 20 mg/kg bid): 26.2 ± 2.8 g
- Body weight ([3]; Day 7, 2.5 mg/kg bid): 25.4 ± 2.0 g
- Body weight ([3]; Day 7, 5 mg/kg bid): 27.5 ± 1.7 g
- Body weight ([3]; Day 7, 10 mg/kg bid): 26.3 ± 1.1 g
- Body weight ([3]; Day 7, 20 mg/kg bid): 27.2 ± 2.7 g
- Body weight ([3]; Day 9, 2.5 mg/kg bid): 25.5 ± 1.8 g
- Body weight ([3]; Day 9, 5 mg/kg bid): 27.5 ± 2.3 g
- Body weight ([3]; Day 9, 10 mg/kg bid): 26.4 ± 1.1 g
- Body weight ([3]; Day 9, 20 mg/kg bid): 27.7 ± 2.9 g
- Body weight ([3]; Day 11, 2.5 mg/kg bid): 25.7 ± 1.9 g
- Body weight ([3]; Day 11, 5 mg/kg bid): 27.8 ± 2.2 g
- Body weight ([3]; Day 11, 10 mg/kg bid): 26.4 ± 1.4 g
- Body weight ([3]; Day 11, 20 mg/kg bid): 27.6 ± 3.5 g
- General observations: survival ([3]; all animals in all dose groups): survived until the end of administration
- Tolerance (body weight course) ([3]; all dose groups, 2.5-20 mg/kg bid): good tolerance
- IC50 (ALK): 0.182 µM
